Source: patent US20260325685A1, “Radiopharmaceutical Compositions Targeting Carbonic Anhydrase IX and Uses Thereof” (RayzeBio, Inc., priority 2023, published 2026)
Where two headings read alike, the source gives them in different places.

Columns and labels:
human CA-IX = target: T1, human CA-IX (Homo sapiens, UniProt Q16790); assay: Surface Plasmon Resonance (SPR) binding kinetics to recombinant human CA-IX (Biacore 8K, single-cycle kinetics, 1:1 binding model)
T1 construct: purchased Acro CA9-H82E3
Outline: (§1)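 At 25° C, compound was injected at nine concentrations from 100 to 0.39 nM (PBS-P+ pH 7.4, 1% DMSO) over streptavidin-captured recombinant human CA-IX or CA-XII (1200-1800 RU). Association 120 s, dissociation 1200 s, single-cycle format; association and dissociation constants from 1:1 kinetic fits.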

human CA-XII = target: T2, human CA-XII (Homo sapiens, UniProt O43570); assay: Surface Plasmon Resonance (SPR) binding kinetics to recombinant human CA-XII (Biacore 8K, single-cycle kinetics, 1:1 binding model)
T2 construct: purchased Creative BioMart CA12-261H
T2 sequence (O43570 25-354): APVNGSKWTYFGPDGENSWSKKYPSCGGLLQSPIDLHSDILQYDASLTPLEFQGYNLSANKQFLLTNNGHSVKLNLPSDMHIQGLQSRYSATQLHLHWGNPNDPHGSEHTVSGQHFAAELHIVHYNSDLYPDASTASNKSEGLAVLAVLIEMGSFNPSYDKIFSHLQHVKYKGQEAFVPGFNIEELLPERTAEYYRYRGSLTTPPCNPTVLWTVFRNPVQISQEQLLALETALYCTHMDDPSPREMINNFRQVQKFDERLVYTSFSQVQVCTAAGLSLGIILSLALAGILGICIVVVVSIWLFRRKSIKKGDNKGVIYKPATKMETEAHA
Outline: as §1

[1] = Chelated Metal: Lu-175; SPR, 25° C., pH 7.4; read-out: CAIX KD
[2] = Chelated Metal: Lu-175, 25° C., pH 7.4, read-out: CAXII KD
[3] = read-out: CAIX KD; Chelated Metal: Lu-175; SPR, 25° C., pH 7.4
[4] = read-out: CAXII KD, Chelated Metal: Lu-175, 25° C., pH 7.4

| SMILES | Kd (human CA-IX; [1]) | Kd (human CA-XII; [2]) | further results |
| --- | --- | --- | --- |
| CC(CCC(=O)N[C@@H](CC(=O)N[C@@H](CC(=O)N1CCN(C(=O)CN2CCN(CC(=O)O)CCN(CC(=O)O)CCN(CC(=O)O)CC2)C[C@H]1C(=O)NCCn1cc(-c2ccc(C(=O)Nc3nnc(S(N)(=O)=O)s3)c(Cl)c2)nn1)C(=O)O)C(=O)O)(c1ccc(O)cc1)c1ccc(O)cc1.[Lu+3] [Compound 107.30] | < 1 nM | 1 to 2.5 nM | – |
| NS(=O)(=O)c1nnc(NC(=O)C23CC(c4cn(CCNC(=O)[C@@H]5CN(C(=O)CN6CCN(CC(=O)O)CCN(CC(=O)O)CCN(CC(=O)O)CC6)CCN5C(=O)C[C@H](NC(=O)C[C@H](NC(=O)c5ccc(C6CC6)nc5)C(=O)O)C(=O)O)nn4)(C2)C3)s1.[Lu+3] [Compound 109.12] | 1 to 2.5 nM | 2.5 to 10 nM | – |
| CC(C)c1ccc(C(=O)N[C@@H](CC(=O)N[C@@H](CC(=O)N2CCN(C(=O)CN3CCN(CC(=O)O)CCN(CC(=O)O)CCN(CC(=O)O)CC3)C[C@H]2C(=O)NCCn2cc(C34CC(C(=O)Nc5nnc(S(N)(=O)=O)s5)(C3)C4)nn2)C(=O)O)C(=O)O)cc1.[Lu+3] [Compound 109.39] | 1 to 2.5 nM | 2.5 to 10 nM | – |
| NS(=O)(=O)c1nnc(NC(=O)C23CC(c4cn(CCNC(=O)[C@@H]5CN(C(=O)CN6CCN(CC(=O)O)CCN(CC(=O)O)CCN(CC(=O)O)CC6)CCN5C(=O)C[C@H](NC(=O)C[C@H](NC(=O)c5n[nH]c6ccc(O)cc56)C(=O)O)C(=O)O)nn4)(C2)C3)s1.[Lu+3] [Compound 109.31] | < 1 nM | 2.5 to 10 nM | – |
| NS(=O)(=O)c1nnc(NC(=O)C23CC(c4cn(CCNC(=O)[C@@H]5CN(C(=O)CN6CCN(CC(=O)O)CCN(CC(=O)O)CCN(CC(=O)O)CC6)CCN5C(=O)CNC(=O)C5(C(=O)O)CCN(C(=O)Cc6n[nH]c7ccccc67)CC5)nn4)(C2)C3)s1.[Lu+3] [Compound 112.6] | 1 to 2.5 nM | > 10 nM | – |
| NS(=O)(=O)c1nnc(NC(=O)C23CC(c4cn(CCNC(=O)[C@@H]5CN(C(=O)CN6CCN(CC(=O)O)CCN(CC(=O)O)CCN(CC(=O)O)CC6)CCN5C(=O)C[C@H](Nc5ncc(C(=O)N6CCC(c7ccc(O)cc7)(c7ccc(O)cc7)CC6)cn5)C(=O)O)nn4)(C2)C3)s1.[Lu+3] [Compound 111.4] | 2.5 to 10 nM | > 10 nM | – |
| NS(=O)(=O)c1nnc(NC(=O)C23CC(c4cn(CCNC(=O)[C@@H]5CN(C(=O)CN6CCN(CC(=O)O)CCN(CC(=O)O)CCN(CC(=O)O)CC6)CCN5C(=O)C[C@H](Nc5ncc(C(=O)NCCc6ccc(C(F)(F)F)cc6)cn5)C(=O)O)nn4)(C2)C3)s1.[Lu+3] [Compound 111.7] | 2.5 to 10 nM | > 10 nM | – |
| NS(=O)(=O)c1nnc(NC(=O)C23CC(c4cn(CCNC(=O)[C@@H]5CN(C(=O)CN6CCN(CC(=O)O)CCN(CC(=O)O)CCN(CC(=O)O)CC6)CCN5C(=O)C[C@H](NC(=O)C[C@H](NC(=O)c5n[nH]nc5C(F)(F)F)C(=O)O)C(=O)O)nn4)(C2)C3)s1.[Lu+3] [Compound 109.28] | < 1 nM | 1 to 2.5 nM | – |
| CC(CCC(=O)N[C@@H](CC(=O)N[C@@H](CC(=O)NC1(C(=O)NCCOCCOCCNC(=O)CN2CCN(CC(=O)O)CCN(CC(=O)O)CCN(CC(=O)O)CC2)CN(C(=O)Cn2cc(CCCCC(=O)Nc3nnc(S(N)(=O)=O)s3)nn2)C1)C(=O)O)C(=O)O)(c1ccc(O)cc1)c1ccc(O)cc1.[Lu+3] [Compound 103.4] | 2.5 to 10 nM | 2.5 to 10 nM | – |
| CC(CCC(=O)N[C@@H](CC(=O)N[C@@H](CC(=O)N1CCN(C(=O)CN2CCN(CC(=O)O)CCN(CC(=O)O)CCN(CC(=O)O)CC2)CC1CCCCn1cc(CCCC(=O)Nc2nnc(S(N)(=O)=O)s2)nn1)C(=O)O)C(=O)O)(c1ccc(O)cc1)c1ccc(O)cc1.[Lu+3] (stereo partly shown) [Compound 104] | – | – | Kd (human CA-IX; [3]): 1 to 2.5 nM; Kd (human CA-XII; [4]): 2.5 to 10 nM |
| CC(CCC(=O)N[C@@H](CC(=O)N[C@@H](CC(=O)N[C@@H](CCCCn1cc(C23CCC(C(=O)Nc4nnc(S(N)(=O)=O)s4)(CC2)C3)nn1)C(=O)NCC1(C(=O)O)CCN(C(=O)CN2CCN(CC(=O)O)CCN(CC(=O)O)CCN(CC(=O)O)CC2)CC1)C(=O)O)C(=O)O)(c1ccc(O)cc1)c1ccc(O)cc1.[Lu+3] [Compound 100.18] | < 1 nM | < 1 nM | – |
| CC(CCC(=O)N[C@@H](CC(=O)N[C@@H](CC(=O)N1CCN(C(=O)CN2CCN(CC(=O)O)CCN(CC(=O)O)CCN(CC(=O)O)CC2)C[C@H]1C(=O)NCCn1nnc(C(=O)O)c1C12CC(C(=O)Nc3nnc(S(N)(=O)=O)s3)(C1)C2)C(=O)O)C(=O)O)(c1ccc(O)cc1)c1ccc(O)cc1.[Lu+3] [Compound 107.61] | 1 to 2.5 nM | > 10 nM | – |
| NS(=O)(=O)c1nnc(NC(=O)C23CCC(c4cn(CCNC(=O)[C@@H]5CN(C(=O)CN6CCN(CC(=O)O)CCN(CC(=O)O)CCN(CC(=O)O)CC6)CCN5C(=O)CNC(=O)C5(C(=O)O)CCN(C(=O)CCC6CCCCC6)CC5)nn4)(CC2)CC3)s1.[Lu+3] [Compound 107.10] | < 1 nM | < 1 nM | – |
| CC(CCCC(=O)N1CCOC[C@H]1C(=O)N[C@@H](CC(=O)N1CCN(C(=O)CN2CCN(CC(=O)O)CCN(CC(=O)O)CC2)C[C@@H]1C(=O)NCCn1cc(C23CC(C(=O)Nc4nnc(S(N)(=O)=O)s4)(C2)C3)nn1)C(=O)O)(c1ccc(O)cc1)c1ccc(O)cc1.[Cu+2] [Compound 126.3] | – | – | Kd (human CA-IX; Chelated Metal: Cu (cold); SPR, 25° C., pH 7.4; read-out: CAIX KD): < 1 nM; Kd (human CA-XII; Chelated Metal: Cu (cold), 25° C., pH 7.4, read-out: CAXII KD): > 10 nM |
| NS(=O)(=O)c1nnc(NC(=O)C23CC(c4cn(CCNC(=O)[C@@H]5CN(C(=O)CN6CCN(CC(=O)O)CCN(CC(=O)O)CCN(CC(=O)O)CC6)CCN5C(=O)C[C@H](NC(=O)C[C@H](NC(=O)Cc5n[nH]c6ccc(O)cc56)C(=O)O)C(=O)O)nn4)(C2)C3)s1.[Lu+3] [Compound 109.32] | < 1 nM | > 10 nM | – |
| CC(CCC(=O)N[C@@H](CC(=O)N[C@@H](CC(=O)N1CCN(C(=O)CN2CCN(CC(=O)O)CCN(CC(=O)O)CCN(CC(=O)O)CC2)C[C@H]1C(=O)NCCn1cc(COc2ccc3nc(S(N)(=O)=O)sc3c2)nn1)C(=O)O)C(=O)O)(c1ccc(O)cc1)c1ccc(O)cc1.[Lu+3] [Compound 107.26] | < 1 nM | > 10 nM | – |
| CC(CCCC(=O)N1CCC(C(=O)O)(C(=O)NCC(=O)N2CCN(C(=O)CN3CCN(CC(=O)O)CCN(CC(=O)O)CCN(CC(=O)O)CC3)C[C@@H]2C(=O)NCCn2cc(C34CC(C(=O)Nc5nnc(S(N)(=O)=O)s5)(C3)C4)nn2)CC1)(c1ccc(O)cc1)c1ccc(O)cc1.[Lu+3] [Compound 107.6] | < 1 nM | > 10 nM | – |
| CC(CCCC(=O)N1CCOC[C@H]1C(=O)N[C@@H](CC(=O)N1CCN(C(=O)CN2CCN(CC(=O)O)CCN(CC(=O)O)CCN(CC(=O)O)CC2)C[C@H]1C(=O)NCCn1cc(C23CC(c4cn5nc(S(N)(=O)=O)sc5n4)(C2)C3)nn1)C(=O)O)(c1ccc(O)cc1)c1ccc(O)cc1.[Lu+3] [Compound 107.48] | < 1 nM | 1 to 2.5 nM | – |
| NS(=O)(=O)c1nnc(NC(=O)C23CC(c4cn(CCNC(=O)[C@@H]5CN(C(=O)CN6CCN(CC(=O)O)CCN(CC(=O)O)CCN(CC(=O)O)CC6)CCN5C(=O)C[C@H](Nc5ncc(C(=O)NCc6ccc(C7CC7)cn6)cn5)C(=O)O)nn4)(C2)C3)s1.[Lu+3] [Compound 111.2] | 2.5 to 10 nM | > 10 nM | – |
| NS(=O)(=O)c1nnc(NC(=O)C23CC(c4cn(CCNC(=O)[C@@H]5CN(C(=O)CN6CCN(CC(=O)O)CCN(CC(=O)O)CCN(CC(=O)O)CC6)CCN5C(=O)C[C@H](Nc5ncc(C(=O)NCC6CC7(CCC7)C6)cn5)C(=O)O)nn4)(C2)C3)s1.[Lu+3] [Compound 111.9] | 1 to 2.5 nM | > 10 nM | – |
| NS(=O)(=O)c1nnc(NC(=O)C23CC(c4cn(CCNC(=O)[C@@H]5CN(C(=O)CN6CCN(CC(=O)O)CCN(CC(=O)O)CCN(CC(=O)O)CC6)CCN5C(=O)C[C@H](NC(=O)C[C@H](NC(=O)c5ccc(C(F)(F)F)cc5)C(=O)O)C(=O)O)nn4)(C2)C3)s1.[Lu+3] [Compound 109.35] | 1 to 2.5 nM | 2.5 to 10 nM | – |
| CC(CCOC(=O)N1CCC(C(N)=O)(C(=O)NCC(=O)N2CCN(C(=O)CN3CCN(CC(=O)O)CCN(CC(=O)O)CCN(CC(=O)O)CC3)C[C@H]2C(=O)NCCn2cc(C34CC(C(=O)Nc5nnc(S(N)(=O)=O)s5)(C3)C4)nn2)CC1)(c1ccc(O)cc1)c1ccc(O)cc1.[Lu+3] [Compound 107.57] | 1 to 2.5 nM | > 10 nM | – |
| CC(CCNC(=O)N1CCC(C(N)=O)(C(=O)NCC(=O)N2CCN(C(=O)CN3CCN(CC(=O)O)CCN(CC(=O)O)CCN(CC(=O)O)CC3)C[C@H]2C(=O)NCCn2cc(C34CC(C(=O)Nc5nnc(S(N)(=O)=O)s5)(C3)C4)nn2)CC1)(c1ccc(O)cc1)c1ccc(O)cc1.[Lu+3] [Compound 107.56] | 1 to 2.5 nM | > 10 nM | – |
| CC(CCCC(=O)N1CCC(C#N)(C(=O)NCC(=O)N2CCN(C(=O)CN3CCN(CC(=O)O)CCN(CC(=O)O)CCN(CC(=O)O)CC3)C[C@@H]2C(=O)NCCn2cc(C34CC(C(=O)Nc5nnc(S(N)(=O)=O)s5)(C3)C4)nn2)CC1)(c1ccc(O)cc1)c1ccc(O)cc1.[Lu+3] [Compound 107.31] | 1 to 2.5 nM | > 10 nM | – |
| CC(CCC(=O)N[C@@H](CC(=O)N[C@@H](CC(=O)N1CCN(C(=O)CC[C@H](C(=O)O)N2CCN(CC(=O)O)CCN(CC(=O)O)CCN(CC(=O)O)CC2)C[C@H]1C(=O)NCCn1cc(C23CC(C(=O)Nc4nnc(S(N)(=O)=O)s4)(C2)C3)nn1)C(=O)O)C(=O)O)(c1ccc(O)cc1)c1ccc(O)cc1.[Lu+3] [Compound 127] | < 1 nM | > 10 nM | – |
| CC(CCC(=O)N1CCC(C(=O)O)(C(=O)NCC(=O)N[C@@H](CCCCn2cc(CCCC(=O)Nc3nnc(S(N)(=O)=O)s3)nn2)C(=O)NCCOCCOCCNC(=O)CN2CCN(CC(=O)O)CCN(CC(=O)O)CCN(CC(=O)O)CC2)CC1)(c1ccc(O)cc1)c1ccc(O)cc1.[Lu+3] [Compound 102] | – | – | Kd (human CA-IX; [3]): 1 to 2.5 nM; Kd (human CA-XII; [4]): > 10 nM |
